Data as given in PMC5218480 (PLoS ONE, 2017).

Tested on: MV-4-11 cells
Experiment: Gene expression microarray analysis (Affymetrix PrimeView) and GSEA
Assay type: cell-based, human
Parameters: RFU PODN (11730768_x_at) / Fold change /veh PODN (11730768_x_at) / RFU LINC00158 (11744669_a_at) / Fold change /veh LINC00158 (11744669_a_at) / RFU DUSP10 (11751237_a_at) / Fold change /veh DUSP10 (11751237_a_at) / RFU ID3 (11757404_x_at) / Fold change /veh ID3 (11757404_x_at) / RFU PLEKHG5 (11737974_s_at) / Fold change /veh PLEKHG5 (11737974_s_at) / RFU LRRC4B (11730491_at) / Fold change /veh LRRC4B (11730491_at) / RFU GIMAP4 (11747438_a_at) / Fold change /veh GIMAP4 (11747438_a_at) / RFU KRT8 (11758183_x_at) / Fold change /veh KRT8 (11758183_x_at) / RFU CNN1 (11734310_a_at) / Fold change /veh CNN1 (11734310_a_at) / RFU VPS37D (11726825_at) / Fold change /veh VPS37D (11726825_at) / RFU C10orf10 (11716522_x_at) / Fold change /veh C10orf10 (11716522_x_at) / RFU KIR2DL2 /// KIR2DL4 /// KIR2DL5A /// KIR2DL5B /// KIR2DS1 /// KIR2DS2 /// KIR2DS3 /// KIR2DS4 /// KIR3DL3 /// KIR3DL3 /// KIR3DS1 (11738374_at) / Fold change /veh KIR2DL2 /// KIR2DL4 /// KIR2DL5A /// KIR2DL5B /// KIR2DS1 /// KIR2DS2 /// KIR2DS3 /// KIR2DS4 /// KIR3DL3 /// KIR3DL3 /// KIR3DS1 (11738374_at) / RFU C1QL1 (11718748_at) / Fold change /veh C1QL1 (11718748_at) / RFU TMPRSS4 (11747572_a_at) / Fold change /veh TMPRSS4 (11747572_a_at) / RFU HAMP (11756126_x_at) / Fold change /veh HAMP (11756126_x_at) / RFU RNFT2 (11725882_a_at) / Fold change /veh RNFT2 (11725882_a_at) / RFU NR4A2 (11747474_a_at) / Fold change /veh NR4A2 (11747474_a_at) / RFU ABCC12 (11746883_a_at) / Fold change /veh ABCC12 (11746883_a_at) / RFU TMEM136 (11760407_x_at) / Fold change /veh TMEM136 (11760407_x_at) / RFU CLDN22 /// WWC2 (11732394_at) / Fold change /veh CLDN22 /// WWC2 (11732394_at) / RFU HLA-DPB1 (11760878_x_at) / Fold change /veh HLA-DPB1 (11760878_x_at) / RFU SPINT1 (11716480_a_at) / Fold change /veh SPINT1 (11716480_a_at) / RFU GAP43 (11754022_s_at) / Fold change /veh GAP43 (11754022_s_at) / RFU A4GNT (11735810_at) / Fold change /veh A4GNT (11735810_at) / RFU PRB3 (11715151_x_at) / Fold change /veh PRB3 (11715151_x_at) / RFU TUBB4B (11761932_at) / Fold change /veh TUBB4B (11761932_at) / RFU CAPN14 (11732068_a_at) / Fold change /veh CAPN14 (11732068_a_at) / RFU TMCC2 (11721928_a_at) / Fold change /veh TMCC2 (11721928_a_at) / RFU IRGQ (11745062_a_at) / Fold change /veh IRGQ (11745062_a_at) / RFU FAM174B (11720279_a_at) / Fold change /veh FAM174B (11720279_a_at) / RFU TMPRSS4 (11748680_a_at) / Fold change /veh TMPRSS4 (11748680_a_at) / RFU FAM212B (11763350_a_at) / Fold change /veh FAM212B (11763350_a_at) / RFU PLEKHG5 (11743358_a_at) / Fold change /veh PLEKHG5 (11743358_a_at) / RFU ZSCAN30 (11745921_a_at) / Fold change /veh ZSCAN30 (11745921_a_at) / RFU CMKLR1 (11741424_a_at) / Fold change /veh CMKLR1 (11741424_a_at) / RFU LOC101060620 /// MAPK8IP1 (11723275_at) / Fold change /veh LOC101060620 /// MAPK8IP1 (11723275_at) / RFU SPTSSB (11747773_x_at) / Fold change /veh SPTSSB (11747773_x_at) / RFU PRSS12 (11739890_at) / Fold change /veh PRSS12 (11739890_at) / RFU BIN1 (11741810_x_at) / Fold change /veh BIN1 (11741810_x_at) / RFU WNT11 (11732464_a_at) / Fold change /veh WNT11 (11732464_a_at) / RFU C10orf10 (11716521_a_at) / Fold change /veh C10orf10 (11716521_a_at) / RFU C5orf56 (11738089_at) / Fold change /veh C5orf56 (11738089_at) / RFU CYB561 (11721691_x_at) / Fold change /veh CYB561 (11721691_x_at) / RFU ANKRD19P (11752326_a_at) / Fold change /veh ANKRD19P (11752326_a_at) / RFU OR2T12 /// OR2T33 /// OR2T8 (11738714_s_at) / Fold change /veh OR2T12 /// OR2T33 /// OR2T8 (11738714_s_at) / RFU VCAN (11748164_a_at) / Fold change /veh VCAN (11748164_a_at) / RFU JSRP1 (11732532_at) / Fold change /veh JSRP1 (11732532_at) / RFU KRTAP10-11 (11738290_x_at) / Fold change /veh KRTAP10-11 (11738290_x_at) / RFU MYO3A (11730013_a_at) / Fold change /veh MYO3A (11730013_a_at) / RFU EBF3 (11725865_a_at) / Fold change /veh EBF3 (11725865_a_at) / RFU CAMK2N1 (11719241_x_at) / Fold change /veh CAMK2N1 (11719241_x_at) / RFU C5orf56 (11738088_a_at) / Fold change /veh C5orf56 (11738088_a_at) / RFU OLFML3 (11715873_a_at) / Fold change /veh OLFML3 (11715873_a_at) / RFU LOC100653217 /// NTM (11731650_a_at) / Fold change /veh LOC100653217 /// NTM (11731650_a_at) / RFU MAPK11 (11762145_a_at) / Fold change /veh MAPK11 (11762145_a_at) / RFU FIZ1 (11724087_x_at) / Fold change /veh FIZ1 (11724087_x_at) / RFU OASL (11726364_x_at) / Fold change /veh OASL (11726364_x_at) / RFU SOX15 (11748057_x_at) / Fold change /veh SOX15 (11748057_x_at) / RFU CD79A (11719716_a_at) / Fold change /veh CD79A (11719716_a_at) / RFU HIST1H1D (11736915_at) / Fold change /veh HIST1H1D (11736915_at) / RFU CASKIN2 (11723855_a_at) / Fold change /veh CASKIN2 (11723855_a_at) / RFU LOC730098 (11760151_x_at) / Fold change /veh LOC730098 (11760151_x_at) / RFU OR4N2 (11742367_at) / Fold change /veh OR4N2 (11742367_at) / RFU PRRT2 (11749266_a_at) / Fold change /veh PRRT2 (11749266_a_at) / RFU SNX32 (11753110_a_at) / Fold change /veh SNX32 (11753110_a_at) / RFU CDHR5 (11726645_a_at) / Fold change /veh CDHR5 (11726645_a_at) / RFU RCAN1 (11760418_a_at) / Fold change /veh RCAN1 (11760418_a_at) / RFU FAM167A (11723789_a_at) / Fold change /veh FAM167A (11723789_a_at) / RFU FAM26E (11764081_at) / Fold change /veh FAM26E (11764081_at) / RFU ISYNA1 (11749810_s_at) / Fold change /veh ISYNA1 (11749810_s_at) / RFU ACY1 (11761880_at) / Fold change /veh ACY1 (11761880_at) / RFU 11764098_at / Fold change /veh 11764098_at / RFU SAMD14 (11745864_x_at) / Fold change /veh SAMD14 (11745864_x_at) / RFU NPB (11741838_a_at) / Fold change /veh NPB (11741838_a_at) / RFU TMPRSS6 (11731388_a_at) / Fold change /veh TMPRSS6 (11731388_a_at) / RFU KRTAP10-2 (11738614_at) / Fold change /veh KRTAP10-2 (11738614_at) / RFU ARHGAP8 /// PRR5-ARHGAP8 (11727945_x_at) / Fold change /veh ARHGAP8 /// PRR5-ARHGAP8 (11727945_x_at) / RFU KRTAP5-7 /// NADSYN1 (11734609_at) / Fold change /veh KRTAP5-7 /// NADSYN1 (11734609_at) / RFU RASL12 (11751679_a_at) / Fold change /veh RASL12 (11751679_a_at) / RFU CDKN2B (11736163_a_at) / Fold change /veh CDKN2B (11736163_a_at) / RFU PRF1 (11729649_at) / Fold change /veh PRF1 (11729649_at) / RFU, ZNF638 /// ZNF638-IT1 / Fold change vs veh, ZNF638 /// ZNF638-IT1 / RFU, PANK3 / Fold change vs veh, PANK3 / RFU, SH3YL1 / Fold change vs veh, SH3YL1 / RFU, ZEB2 / Fold change vs veh, ZEB2 / RFU, NRIP1 / Fold change vs veh, NRIP1 / RFU, PTTG1IP / Fold change vs veh, PTTG1IP / RFU, CAPN2 / Fold change vs veh, CAPN2 / RFU, MED14 / Fold change vs veh, MED14 / RFU, SNORA58 / Fold change vs veh, SNORA58 / RFU, C1orf63 / Fold change vs veh, C1orf63 / RFU, LRRFIP1 / Fold change vs veh, LRRFIP1 / RFU, NDUFAF7 / Fold change vs veh, NDUFAF7 / RFU, SLC12A2 / Fold change vs veh, SLC12A2 / RFU, IBTK / Fold change vs veh, IBTK / RFU, ESF1 / Fold change vs veh, ESF1 / Fold change vs veh, TMEM50B / RFU, TAOK1 / Fold change vs veh, TAOK1 / RFU, ACBD3 / Fold change vs veh, ACBD3 / RFU, TMA16 / Fold change vs veh, TMA16 / RFU, RWDD3 / Fold change vs veh, RWDD3 / RFU, BCAT1 / Fold change vs veh, BCAT1 / RFU, EDEM3 / Fold change vs veh, EDEM3 / RFU, TMEM33 / Fold change vs veh, TMEM33 / RFU, WDR75 / Fold change vs veh, WDR75 / RFU, AHCTF1 / Fold change vs veh, AHCTF1 / RFU, TFRC / Fold change vs veh, TFRC / RFU, ZDHHC17 / Fold change vs veh, ZDHHC17 / RFU, NOM1 / Fold change vs veh, NOM1 / RFU, ARL8B / Fold change vs veh, ARL8B / RFU, ZBTB11 / Fold change vs veh, ZBTB11 / RFU, TAMM41 / Fold change vs veh, TAMM41 / RFU, KIAA1704 /// LOC100996395 / Fold change vs veh, KIAA1704 /// LOC100996395 / RFU, ING1 / Fold change vs veh, ING1 / RFU, TRMT61B / Fold change vs veh, TRMT61B / RFU, FUBP3 / Fold change vs veh, FUBP3 / RFU, TP53 / Fold change vs veh, TP53 / RFU, TNKS2 / Fold change vs veh, TNKS2 / RFU, ZFP14 / Fold change vs veh, ZFP14 / RFU, ACTR2 / Fold change vs veh, ACTR2 / RFU, PPP3R1 / Fold change vs veh, PPP3R1 / RFU, PIK3R1 / Fold change vs veh, PIK3R1 / RFU, HNRNPA1 / Fold change vs veh, HNRNPA1 / RFU, RNF170 / Fold change vs veh, RNF170 / RFU, ZNF28 / Fold change vs veh, ZNF28 / RFU, RNGTT / Fold change vs veh, RNGTT / RFU, OGT / Fold change vs veh, OGT / RFU, BRD1 / Fold change vs veh, BRD1 / RFU, MARS / Fold change vs veh, MARS / RFU, ZNF655 / Fold change vs veh, ZNF655 / RFU, FAHD1 / Fold change vs veh, FAHD1 / RFU, BDP1 / Fold change vs veh, BDP1 / RFU, LRRCC1 / Fold change vs veh, LRRCC1 / RFU, ARID1A / Fold change vs veh, ARID1A / RFU, ZNF146 / Fold change vs veh, ZNF146 / RFU, ZNF330 / Fold change vs veh, ZNF330 / RFU, GPN3 / Fold change vs veh, GPN3 / RFU, C9orf123 / Fold change vs veh, C9orf123 / RFU, N4BP2L2 / Fold change vs veh, N4BP2L2 / RFU, ARFIP1 / Fold change vs veh, ARFIP1 / RFU, FAM179B / Fold change vs veh, FAM179B / RFU, BCL10 / Fold change vs veh, BCL10 / RFU, UHRF1BP1L / Fold change vs veh, UHRF1BP1L / RFU, BET1 / Fold change vs veh, BET1 / RFU, CNOT2 / Fold change vs veh, CNOT2 / RFU, ZNF268 / Fold change vs veh, ZNF268 / Fold change vs veh, ZNF507 / RFU, DGCR2 / Fold change vs veh, DGCR2 / RFU, WDSUB1 / Fold change vs veh, WDSUB1 / Fold change vs veh, HSP90B1 /// MIR3652 / RFU, ADSS / Fold change vs veh, ADSS / RFU, GK / Fold change vs veh, GK / RFU, ZNF148 / Fold change vs veh, ZNF148 / RFU, TAF9 / Fold change vs veh, TAF9 / RFU, SLC1A5 / Fold change vs veh, SLC1A5 / RFU, SLMO2 / Fold change vs veh, SLMO2 / RFU, ABCC4 / Fold change vs veh, ABCC4 / RFU, LOC101060439 /// RAP1B / Fold change vs veh, LOC101060439 /// RAP1B / RFU, RFX7 / Fold change vs veh, RFX7 / RFU, GTPBP10 / Fold change vs veh, GTPBP10 / RFU, CNEP1R1 / Fold change vs veh, CNEP1R1 / RFU, BIVM-ERCC5 /// ERCC5 / Fold change vs veh, BIVM-ERCC5 /// ERCC5 / RFU, ILF3 / Fold change vs veh, ILF3 / RFU 11762660_at / Fold change /veh 11762660_at / RFU VCAN (11757783_s_at) / Fold change /veh VCAN (11757783_s_at) / RFU DDX43 (11728927_at) / Fold change /veh DDX43 (11728927_at) / RFU KRT8 (11758188_x_at) / Fold change /veh KRT8 (11758188_x_at) / RFU NKD1 (11759106_at) / Fold change /veh NKD1 (11759106_at) / RFU SRD5A1 (11742802_a_at) / Fold change /veh SRD5A1 (11742802_a_at) / RFU TPSAB1 /// TPSB2 (11721975_s_at) / Fold change /veh TPSAB1 /// TPSB2 (11721975_s_at) / RFU GSTM3 (11746129_a_at) / Fold change /veh GSTM3 (11746129_a_at) / RFU IL23R (11737362_x_at) / Fold change /veh IL23R (11737362_x_at) / RFU TMEM51 (11727254_a_at) / Fold change /veh TMEM51 (11727254_a_at) / RFU PIWIL2 (11732686_x_at) / Fold change /veh PIWIL2 (11732686_x_at) / RFU ORM1 (11744905_x_at) / Fold change /veh ORM1 (11744905_x_at) / RFU CCDC152 (11743942_at) / Fold change /veh CCDC152 (11743942_at) / RFU ECM1 (11717891_a_at) / Fold change /veh ECM1 (11717891_a_at) / RFU IL23R (11748794_a_at) / Fold change /veh IL23R (11748794_a_at) / RFU TNFAIP8L3 (11732012_x_at) / Fold change /veh TNFAIP8L3 (11732012_x_at) / RFU MBOAT4 (11741988_at) / Fold change /veh MBOAT4 (11741988_at) / RFU 11764193_at / Fold change /veh 11764193_at / RFU TMEM53 (11763286_at) / Fold change /veh TMEM53 (11763286_at) / RFU MAGEB2 (11727129_at) / Fold change /veh MAGEB2 (11727129_at) / RFU TMEM200A (11744735_a_at) / Fold change /veh TMEM200A (11744735_a_at) / RFU CCDC152 (11751479_a_at) / Fold change /veh CCDC152 (11751479_a_at) / RFU FAM211A (11726209_a_at) / Fold change /veh FAM211A (11726209_a_at) / RFU RGS16 (11746705_a_at) / Fold change /veh RGS16 (11746705_a_at) / RFU VCAN (11755009_s_at) / Fold change /veh VCAN (11755009_s_at) / RFU RHOB (11743442_s_at) / Fold change /veh RHOB (11743442_s_at) / RFU RGS16 (11720943_a_at) / Fold change /veh RGS16 (11720943_a_at) / RFU RGS16 (11720944_at) / Fold change /veh RGS16 (11720944_at) / RFU, VPS4B / Fold change vs veh, VPS4B / RFU, CREB1 / Fold change vs veh, CREB1 / RFU, DNAJC13 / Fold change vs veh, DNAJC13 / RFU, GNAQ / Fold change vs veh, GNAQ / RFU, CDK5R1 / Fold change vs veh, CDK5R1 / RFU, ZRANB3 / Fold change vs veh, ZRANB3 / RFU, CUL4A / Fold change vs veh, CUL4A / RFU, CCNY / Fold change vs veh, CCNY / RFU, UFL1 / Fold change vs veh, UFL1 / RFU, COG3 / Fold change vs veh, COG3 / RFU, DIAPH2 / Fold change vs veh, DIAPH2 / RFU, SKA2 / Fold change vs veh, SKA2 / RFU, AFF3 / Fold change vs veh, AFF3 / RFU, LMF1 / Fold change vs veh, LMF1 / RFU, IPO11 / Fold change vs veh, IPO11 / RFU, DFFB / Fold change vs veh, DFFB / RFU, FOXP1 / Fold change vs veh, FOXP1 / RFU, CARD8 / Fold change vs veh, CARD8 / RFU, STRN3 / Fold change vs veh, STRN3 / RFU, ADK / Fold change vs veh, ADK / RFU, RASSF2 / Fold change vs veh, RASSF2 / RFU, WIPF1 / Fold change vs veh, WIPF1 / RFU, LARP1B / Fold change vs veh, LARP1B / RFU, RASA1 / Fold change vs veh, RASA1 / RFU, RB1 / Fold change vs veh, RB1 / RFU, PPFIA1 / Fold change vs veh, PPFIA1 / RFU, MAT2A / Fold change vs veh, MAT2A / RFU, CCT5 / Fold change vs veh, CCT5 / RFU, WDR92 / Fold change vs veh, WDR92 / RFU, CUX1 / Fold change vs veh, CUX1 / RFU, TTC7A / Fold change vs veh, TTC7A / RFU, TMEM135 / Fold change vs veh, TMEM135 / RFU, DEPTOR / Fold change vs veh, DEPTOR / RFU, CPM / Fold change vs veh, CPM / RFU, DNAJB6 / Fold change vs veh, DNAJB6 / RFU, CACNA2D3 / Fold change vs veh, CACNA2D3 / RFU, DTX4 / Fold change vs veh, DTX4 / RFU, TFCP2 / Fold change vs veh, TFCP2 / RFU, GMCL1 /// GMCL1P1 / Fold change vs veh, GMCL1 /// GMCL1P1 / RFU, AEBP2 / Fold change vs veh, AEBP2 / RFU, SNHG1 /// SNORD22 /// SNORD25 /// SNORD26 /// SNORD27 /// SNORD28 /// SNORD29 /// SNORD31 / Fold change vs veh, SNHG1 /// SNORD22 /// SNORD25 /// SNORD26 /// SNORD27 /// SNORD28 /// SNORD29 /// SNORD31 / Fold change (Aza/veh), C12orf56 (ProbeSet 11735607_a_at) / Fold change (ACY-1035/veh), C12orf56 (ProbeSet 11735607_a_at) / Fold change (Aza/veh), FGFR1OP (ProbeSet 11751329_s_at) / Fold change (ACY-1035/veh), FGFR1OP (ProbeSet 11751329_s_at) / Fold change (Aza/veh), VPS36 (ProbeSet 11739960_a_at) / Fold change (ACY-1035/veh), VPS36 (ProbeSet 11739960_a_at) / RFU SYPL1 (11715823_x_at) / Fold change /veh SYPL1 (11715823_x_at) / RFU IGFBP7 (11715501_s_at) / Fold change /veh IGFBP7 (11715501_s_at) / RFU REEP3 (11722064_at) / Fold change /veh REEP3 (11722064_at) / RFU IGLL1 (11728026_x_at) / Fold change /veh IGLL1 (11728026_x_at): dose or concentration left out as unconfirmed
Details: ProbeSet 11716331_a_at; LIST D

Nc1ncn([C@@H]2O[C@H](CO)[C@@H](O)[C@H]2O)c(=O)n1 [azacitidine]
Fold change vs veh, DNAJB6: 0.52
